Tests used:
Experiment in all cases: relative viability (nuclei count vs DMSO), 5 days (fraction); higher = more cells survive
Vorinostat + OSI-027 = compound: O=C(CCCCCCC(=O)Nc1ccccc1)NO [Vorinostat] + COc1cccc2cc(-c3nc([C@H]4CC[C@H](C(=O)O)CC4)n4ncnc(N)c34)[nH]c12 [OSI-027] (partner 0.5 µM)
Procedure, shortened: (§1)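 A single step with final 0.05% Triton X-100, 1% formaldehyde and 1 ug/ml Hoechst fixed the cells and stained nuclei 5 days after treatment. Lung cancer cell lines in 1536-well plates had been treated by pin tool the day after seeding with one drug alone or a fixed anchor-drug dose plus five library-drug doses (not always all listed) in √10 steps, and nuclei were counted on 4× images. Relative viability is the ratio of nuclei in treated wells to nuclei in vehicle wells, taken as the median of duplicate plates.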

Vorinostat + Bortezomib = compound: O=C(CCCCCCC(=O)Nc1ccccc1)NO [Vorinostat] + CC(C)C[C@H](NC(=O)[C@H](Cc1ccccc1)NC(=O)c1cnccn1)B(O)O [Bortezomib] (partner 0.002 µM)
Procedure, shortened: as §1

Vorinostat + Palbociclib = compound: O=C(CCCCCCC(=O)Nc1ccccc1)NO [Vorinostat] + CC(=O)c1c(C)c2cnc(Nc3ccc(N4CCNCC4)cn3)nc2n(C2CCCC2)c1=O [Palbociclib] (partner 0.5 µM)
Procedure, shortened: as §1

Vorinostat + Decitabine = compound: O=C(CCCCCCC(=O)Nc1ccccc1)NO [Vorinostat] + Nc1ncn([C@H]2C[C@H](O)[C@@H](CO)O2)c(=O)n1 [Decitabine] (partner 2 µM)
Procedure, shortened: as §1

Vorinostat + Alpelisib = compound: O=C(CCCCCCC(=O)Nc1ccccc1)NO [Vorinostat] + Cc1nc(NC(=O)N2CCC[C@H]2C(N)=O)sc1-c1ccnc(C(C)(C)C(F)(F)F)c1 [Alpelisib] (partner 2 µM)
Procedure, shortened: as §1

| Cell Line | relative viability (Vorinostat + OSI-027; first compound 0.253 µM) | relative viability (Vorinostat + OSI-027; first compound 0.8 µM) | relative viability (Vorinostat + OSI-027; first compound 2.53 µM) | relative viability (Vorinostat + OSI-027; first compound 8 µM) | relative viability (Vorinostat + Bortezomib; first compound 0.253 µM) | relative viability (Vorinostat + Bortezomib; first compound 0.8 µM) | relative viability (Vorinostat + Bortezomib; first compound 2.53 µM) | relative viability (Vorinostat + Bortezomib; first compound 8 µM) | relative viability (Vorinostat + Palbociclib; first compound 0.253 µM) | relative viability (Vorinostat + Palbociclib; first compound 0.8 µM) | relative viability (Vorinostat + Palbociclib; first compound 2.53 µM) | relative viability (Vorinostat + Palbociclib; first compound 8 µM) | relative viability (Vorinostat + Decitabine; first compound 0.253 µM) | relative viability (Vorinostat + Decitabine; first compound 0.8 µM) | relative viability (Vorinostat + Decitabine; first compound 2.53 µM) | relative viability (Vorinostat + Decitabine; first compound 8 µM) | relative viability (Vorinostat + Alpelisib; first compound 0.253 µM) | relative viability (Vorinostat + Alpelisib; first compound 0.8 µM) | relative viability (Vorinostat + Alpelisib; first compound 2.53 µM) | relative viability (Vorinostat + Alpelisib; first compound 8 µM) |
| --- | --- | --- | --- | --- | --- | --- | --- | --- | --- | --- | --- | --- | --- | --- | --- | --- | --- | --- | --- | --- |
| HARA | 0.64 | 0.213 | 0.155 | 0.0573 | 1.1 | 0.928 | 0.149 | 0.0288 | 0.32 | 0.295 | 0.184 | 0.133 | 0.468 | 0.367 | 0.194 | 0.0814 | 0.949 | 0.761 | 0.174 | 0.0907 |
| LC-2-ad | 0.81 | 0.508 | 0.206 | 0.159 | 1.01 | 0.579 | 0.146 | 0.0588 | 0.566 | 0.455 | 0.331 | 0.186 | 0.839 | 0.69 | 0.469 | 0.227 | 0.816 | 0.644 | 0.0538 | 0.0781 |
| NCI-H1437 | 0.934 | 0.467 | 0.197 | 0.146 | 0.578 | 0.417 | 0.117 | 0.0915 | 0.303 | 0.265 | 0.172 | 0.124 | 0.55 | 0.454 | 0.285 | 0.235 | 0.858 | 0.738 | 0.152 | 0.104 |
| NCI-H2126 | 0.761 | 0.572 | 0.506 | 0.209 | 1.13 | 1.13 | 0.943 | 0.371 | 0.396 | 0.367 | 0.314 | 0.194 | 0.58 | 0.533 | 0.332 | 0.19 | 0.733 | 0.653 | 0.365 | 0.199 |
| NCI-H460 | 0.821 | 0.484 | 0.0397 | 0.0148 | 1.12 | 0.783 | 0.0198 | 0.0125 | 0.146 | 0.0944 | 0.0356 | 0.011 | 0.526 | 0.377 | 0.0496 | 0.0202 | 0.609 | 0.351 | 0.0248 | 0.0089 |
| SK-LU-1 | 0.407 | 0.377 | 0.204 | 0.116 | 0.678 | 1.22 | 0.248 | 0.163 | 0.438 | 0.363 | 0.32 | 0.177 | 0.655 | 0.669 | 0.494 | 0.196 | 1.14 | 0.721 | 0.488 | 0.178 |
| LCLC-97TM1 | 0.444 | 0.582 | 0.249 | 0.112 | 0.724 | 0.413 | 0.121 | 0.0563 | 0.256 | 0.201 | 0.109 | 0.0671 | 0.236 | 0.264 | 0.129 | 0.0801 | – | 0.26 | 0.158 | 0.114 |
| NCI-H1993 | 0.53 | 0.63 | 0.568 | 0.525 | 1.17 | 1.13 | 0.461 | 0.411 | 0.715 | 0.775 | 0.499 | 0.362 | 0.704 | 0.65 | 0.465 | 0.16 | 0.737 | 0.691 | 0.562 | 0.522 |
| A-427 | 0.535 | 0.281 | 0.226 | 0.105 | 0.991 | 1.04 | 0.723 | 0.21 | 0.522 | 0.496 | 0.331 | 0.227 | 0.551 | 0.557 | 0.434 | 0.166 | 1.1 | 1.1 | 0.889 | 0.146 |
| NCI-H1915 | 0.632 | 0.5 | 0.205 | 0.152 | 1.01 | 0.951 | 0.54 | 0.112 | 0.563 | 0.436 | 0.167 | 0.0832 | 0.278 | 0.254 | 0.174 | 0.106 | 1.16 | 1 | 0.4 | 0.0675 |
| NCI-H23 | 0.595 | 0.338 | 0.329 | 0.118 | 1.19 | 1.07 | 0.251 | 0.128 | 0.696 | 0.622 | 0.154 | 0.137 | 0.299 | 0.241 | 0.139 | 0.155 | 0.84 | 0.707 | 0.213 | 0.117 |
| NCI-H727 | 0.682 | 0.574 | 0.477 | 0.393 | 0.928 | 0.613 | 0.324 | 0.233 | 0.688 | 0.633 | 0.606 | 0.51 | 0.902 | 0.82 | 0.707 | 0.522 | 0.536 | 0.68 | 0.303 | 0.203 |
| EPLC-272H | 0.272 | 0.228 | 0.175 | 0.147 | 0.742 | 0.744 | 0.275 | 0.12 | 0.289 | 0.294 | 0.217 | 0.171 | 0.309 | 0.338 | 0.189 | 0.152 | 0.928 | 0.893 | 0.396 | 0.175 |
| LU99A | 0.352 | 0.276 | 0.195 | 0.164 | 1.09 | 0.863 | 0.298 | 0.158 | 0.389 | 0.375 | 0.272 | 0.104 | 0.949 | 0.702 | 0.389 | 0.156 | 0.517 | 0.395 | 0.178 | 0.126 |
| 201T | 0.837 | 0.756 | 0.322 | 0.118 | 1.11 | 1.1 | 1.1 | 0.641 | 0.363 | 0.357 | 0.379 | 0.242 | 0.845 | 0.874 | 0.679 | 0.266 | 0.965 | 0.982 | 0.751 | 0.309 |
| LCLC-103H | 0.545 | 0.502 | 0.429 | 0.143 | 1.16 | 0.893 | 0.391 | 0.238 | 0.494 | 0.424 | 0.368 | 0.302 | 0.715 | 0.766 | 0.329 | 0.363 | 1.23 | 0.97 | 0.58 | 0.184 |

From the supplement of paper PMC10307832
